Drawing on ChEMBL document CHEMBL5120803, “Design, synthesis and activity study of a novel PI3K degradation by hijacking VHL E3 ubiquitin ligase” (2022), this text covers Activity and inhibition for 13 molecules.

Assay [1] concerns HCT-116. Put plainly: Antiproliferative activity against human HCT-116 cells assessed as inhibition of cell proliferation at 10 uM incubated for 72 hrs by CCK8 assay relative to control. Format: functional. The arrangement: scale not given: the % may be the effect or the level left. In general terms: Tetrazolium dyes change colour on reduction, which living cells bring about.
For assay [2], the target named is Phosphatidylinositol 4,5-bisphosphate 3-kinase catalytic subunit alpha isoform (Homo sapiens) (UniProt P42336). Put plainly: Inhibition on PI3Kalpha (unknown origin) at 1 nM by kinase-glo plus luminescent assay relative to control.
The subject of assay [3] is HeLa. Put plainly: Antiproliferative activity against human HeLa cells assessed as inhibition of cell proliferation at 10 uM incubated for 72 hrs by CCK8 assay relative to control. The arrangement: scale not given: the % may be the effect or the level left. Format: functional.
The test system of assay [4] is HT-29. The assay can be described thus: Antiproliferative activity against human HT-29 cells assessed as inhibition of cell proliferation at 10 uM incubated for 72 hrs by CCK8 assay relative to control. Format: functional. Set-up: scale not given: the % may be the effect or the level left.
The target in assay [5] is T1, von Hippel-Lindau disease tumor suppressor/Phosphatidylinositol 4,5-bisphosphate 3-kinase catalytic subunit alpha isoform (Homo sapiens) (UniProt P42336+P40337). Put plainly: PROTAC activity at VHL/PI3K in human HeLa cells assessed as inhibition of AKT phosphorylation by Western blotting analysis. Format: cell-based. The note with it: time 2-12 hrs, TDE = time-dependent effect. Background: In western blotting, separated proteins are transferred to a membrane and probed.

Assay [6] concerns the target T1, von Hippel-Lindau disease tumor suppressor/Phosphatidylinositol 4,5-bisphosphate 3-kinase catalytic subunit alpha isoform (Homo sapiens). The assay can be described thus: PROTAC activity at VHL/PI3K in human HeLa cells assessed as redcution in AKT phosphorylation at 3 uM incubated for 24 hrs by Western blotting analysis. Format: cell-based.
The target is the same in assay [7]. Put plainly: PROTAC activity at VHL/PI3K in human HeLa cells assessed as induction of PI3Kalpha degradation at 3 uM incubated for 24 hrs by Western blotting analysis. It counts as cell-based.
The target is the same in assay [8]. The assay can be described thus: PROTAC activity at VHL/PI3K in human HeLa cells assessed as induction of PI3Kalpha degradation at 1 to 10 uM incubated for 24 hrs by Western blotting analysis. It counts as cell-based. The settings on record: dose 1-10 µM.
Assay [9] has the same target. The assay can be described thus: PROTAC activity at VHL/PI3K in human HeLa cells assessed as reduction in AKT phosphorylation at 10 uM incubated for 24 hrs by Western blotting analysis. Format: cell-based.
The target is the same in assay [10]. Put plainly: PROTAC activity at VHL/PI3K in human HeLa cells assessed as induction of PI3Kalpha degradation at 10 uM incubated for 24 hrs by Western blotting analysis. It counts as cell-based.
The target is the same in assay [11]. Put plainly: PROTAC activity at VHL/PI3K in human HeLa cells assessed as induction of PI3Kalpha degradation by Western blotting analysis. It counts as cell-based. The settings on record: time 2-12 hrs, TDE = time-dependent effect.

SMILES strings stand for the structures. The source made the active and inactive calls. The rule behind the calls is not given here.

Sequence of Phosphatidylinositol 4,5-bisphosphate 3-kinase catalytic subunit alpha isoform (Homo sapiens) (P42336 whole entry, canonical isoform): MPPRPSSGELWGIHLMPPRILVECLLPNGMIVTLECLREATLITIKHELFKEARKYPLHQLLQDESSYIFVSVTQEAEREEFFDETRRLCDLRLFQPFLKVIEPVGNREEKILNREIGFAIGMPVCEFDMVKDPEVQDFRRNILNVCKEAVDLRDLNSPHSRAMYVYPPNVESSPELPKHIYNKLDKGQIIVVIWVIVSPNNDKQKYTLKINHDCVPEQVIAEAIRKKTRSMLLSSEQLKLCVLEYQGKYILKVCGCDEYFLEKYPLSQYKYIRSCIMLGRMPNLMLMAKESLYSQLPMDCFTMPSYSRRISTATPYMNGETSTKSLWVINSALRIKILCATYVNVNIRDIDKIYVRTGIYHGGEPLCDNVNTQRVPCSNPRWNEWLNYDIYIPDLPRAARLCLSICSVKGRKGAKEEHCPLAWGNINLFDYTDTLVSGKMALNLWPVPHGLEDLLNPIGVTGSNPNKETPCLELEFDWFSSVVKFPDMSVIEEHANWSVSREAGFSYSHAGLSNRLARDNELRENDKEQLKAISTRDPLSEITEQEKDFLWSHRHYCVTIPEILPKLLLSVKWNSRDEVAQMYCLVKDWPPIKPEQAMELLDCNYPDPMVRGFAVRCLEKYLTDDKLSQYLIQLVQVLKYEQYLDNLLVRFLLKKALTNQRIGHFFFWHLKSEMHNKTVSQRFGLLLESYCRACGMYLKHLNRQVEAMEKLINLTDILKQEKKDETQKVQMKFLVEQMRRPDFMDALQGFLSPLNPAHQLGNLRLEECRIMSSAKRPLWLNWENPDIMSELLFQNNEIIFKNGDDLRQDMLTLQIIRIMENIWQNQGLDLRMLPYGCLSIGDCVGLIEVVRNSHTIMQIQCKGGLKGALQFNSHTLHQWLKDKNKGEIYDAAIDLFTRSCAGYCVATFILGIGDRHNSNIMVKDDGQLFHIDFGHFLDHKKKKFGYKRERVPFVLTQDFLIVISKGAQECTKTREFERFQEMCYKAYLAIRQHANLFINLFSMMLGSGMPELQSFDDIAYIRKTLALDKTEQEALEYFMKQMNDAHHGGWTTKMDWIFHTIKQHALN
T1 sequence (P40337 whole entry, looked up, canonical isoform): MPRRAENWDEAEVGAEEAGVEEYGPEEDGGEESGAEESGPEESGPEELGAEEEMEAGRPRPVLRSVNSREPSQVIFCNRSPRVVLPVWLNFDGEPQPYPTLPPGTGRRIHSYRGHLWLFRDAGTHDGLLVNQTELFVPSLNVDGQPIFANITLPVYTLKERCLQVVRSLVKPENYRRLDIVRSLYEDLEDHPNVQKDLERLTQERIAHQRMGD
T1 sequence (P42336 whole entry, looked up, canonical isoform): as the sequence (P42336 whole entry, canonical isoform) above

As usually defined, the inhibition is the share of the control response that was lost under treatment. Consider `COc1ncc(-c2ccc3ncc(-c4nnc(-c5ccccc5C(=O)NCCOCC(=O)N[C@H](C(=O)N5C[C@@H](O)C[C@@H]5C(=O)NCc5ccc(-c6scnc6C)cc5)C(C)(C)C)o4)n3c2)cc1NS(=O)(=O)c1ccc(F)cc1F`, for which the figures for the Activity in assay [1], in assay [3] and in assay [4] were 25.32%, 23.41% and 51.09%, respectively. Also, the inhibition in [2] was 40.1%.

For the molecule `COc1ncc(-c2ccc3ncc(-c4nnc(-c5ccccc5C(=O)NCCOCCOCCOCC(=O)N[C@H](C(=O)N5C[C@@H](O)C[C@@H]5C(=O)NCc5ccc(-c6scnc6C)cc5)C(C)(C)C)o4)n3c2)cc1NS(=O)(=O)c1ccc(F)cc1F`, the Activity in assay [1] is given as 48.88%; in assay [3] it was 90.1%; in assay [4], 22.69%. In addition, the inhibition in assay [2] worked out at 59.1%.

As for `COc1ncc(-c2ccc3ncc(-c4nnc(-c5ccccc5C(=O)NCCCCCCC(=O)N[C@H](C(=O)N5C[C@@H](O)C[C@@H]5C(=O)NCc5ccc(-c6scnc6C)cc5)C(C)(C)C)o4)n3c2)cc1NS(=O)(=O)c1ccc(F)cc1F`, the Activity in assay [1] was 50.3%; in [5], “Tde”; in assay [3], 96.33%; in [4], 72.18%; in assay [11], “Tde”. In addition, the inhibition in assay [2] is 49.8%. The outcome in assay [6], in [7], in assay [8], in assay [9] and in assay [10] was Active.

For `COc1ncc(-c2ccc3ncc(-c4nnc(-c5ccccc5C(=O)NCCOCCOCCOCCOCCOCC(=O)N[C@H](C(=O)N5C[C@@H](O)C[C@@H]5C(=O)NCc5ccc(-c6scnc6C)cc5)C(C)(C)C)o4)n3c2)cc1NS(=O)(=O)c1ccc(F)cc1F`, the results for the Activity in [1], in assay [3] and in assay [4] were 37.32%, 85.58% and 61.35%, respectively. Further, the inhibition in assay [2] amounted to 51.9%.

In the case of `COc1ncc(-c2ccc3ncc(-c4nnc(-c5ccccc5C(=O)NCCCCCC(=O)N[C@H](C(=O)N5C[C@@H](O)C[C@@H]5C(=O)NCc5ccc(-c6scnc6C)cc5)C(C)(C)C)o4)n3c2)cc1NS(=O)(=O)c1ccc(F)cc1F`, the results for the Activity in assay [1], in [3] and in assay [4] were 41.16%, 94.03% and 89.26%, respectively. Moreover, the inhibition in assay [2] was 60%. For the same molecule, the result in assay [6], in assay [7], in [8], in [9] and in assay [10] was Active.

As to `COc1ncc(-c2ccc3ncc(-c4nnc(-c5ccccc5C(=O)NCCCCC(=O)N[C@H](C(=O)N5C[C@@H](O)C[C@@H]5C(=O)NCc5ccc(-c6scnc6C)cc5)C(C)(C)C)o4)n3c2)cc1NS(=O)(=O)c1ccc(F)cc1F`, the Activity is reported as 23.94% in assay [1], 32.2% in assay [3] and 82.88% in assay [4]. Besides, the inhibition in [2] was 22.2%.

On to `COc1ncc(-c2ccc3ncc(-c4nnc(-c5ccccc5C(=O)NCCOCCOCCOCCOCC(=O)N[C@H](C(=O)N5CC(O)CC5C(=O)NCc5ccc(-c6scnc6C)cc5)C(C)(C)C)o4)n3c2)cc1NS(=O)(=O)c1ccc(F)cc1F` (single isomer, unassigned), for which the Activity is reported as 57.87% in assay [1], 89.6% in assay [3] and 50.35% in assay [4]. Moreover, the inhibition in assay [2] is 57.5%.

As to `COC(=O)c1ccccc1-c1nnc(-c2cnc3ccc(-c4cnc(OC)c(NS(=O)(=O)c5ccc(F)cc5F)c4)cn23)o1`, the Activity in assay [1] came to 91.65%; in assay [3], 99.37%; in assay [4] it was 80.36%. In addition, the inhibition in [2] came out at 70.2%.

`COc1ncc(-c2ccc3ncc(-c4nnc(-c5ccccc5C(=O)O)o4)n3c2)cc1NS(=O)(=O)c1ccc(F)cc1F`: the Activity in [1] is recorded as 8.23%; in assay [3], 1.62%. The inhibition in [2] was determined as 67.1%.

Regarding `COc1ncc(-c2ccc3ncc(-c4nnc(-c5ccccc5C(=O)NCCOCCOCCOCCOCCOCCOCC(=O)N[C@H](C(=O)N5C[C@@H](O)C[C@@H]5C(=O)NCc5ccc(-c6scnc6C)cc5)C(C)(C)C)o4)n3c2)cc1NS(=O)(=O)c1ccc(F)cc1F`, the figures for the Activity in [1] and in assay [3] were 56.24% and 91.27%, respectively. For the same molecule, the inhibition in [2] is 48.6%.

With `COc1ncc(-c2ccc3ncc(-c4nnc(-c5ccccc5C(=O)NCCCCCCCC(=O)N[C@H](C(=O)N5CC(O)CC5C(=O)NCc5ccc(-c6scnc6C)cc5)C(C)(C)C)o4)n3c2)cc1NS(=O)(=O)c1ccc(F)cc1F` (single isomer, unassigned), the Activity came out at 70.03% in [1], 87.89% in [3] and 74.22% in assay [4]. For the same molecule, the inhibition in [2] came out at 65.2%.

On to `COc1ncc(-c2ccc3ncc(-c4nnc(-c5ccccc5C(=O)NCCOCCOCC(=O)N[C@H](C(=O)N5C[C@@H](O)C[C@@H]5C(=O)NCc5ccc(-c6scnc6C)cc5)C(C)(C)C)o4)n3c2)cc1NS(=O)(=O)c1ccc(F)cc1F`, for which the Activity in assay [1] is recorded as 33.84%; in assay [3], 89.21%; in assay [4], 57.14%. In addition, the inhibition in assay [2] stood at 31.7%.

Consider `COc1ncc(-c2ccc3ncc(-c4nnc(-c5ccccc5C(=O)N[C@H](C(=O)N5C[C@@H](O)C[C@@H]5C(=O)NCc5ccc(-c6scnc6C)cc5)C(C)(C)C)o4)n3c2)cc1NS(=O)(=O)c1ccc(F)cc1F`, for which the Activity is 95.86% in [1] and 30.38% in [3]. In addition, in assay [2], the inhibition was determined as 33.6%.
